The first test deals with T1, Trp-p8 (Homo sapiens, UniProt Q7Z2W7, T58I).
T1 construct: expressed in transfected cells; host or cells: CHO (Chinese Hamster Ovary) cells
T1 sequence (Q7Z2W7 whole entry T58I): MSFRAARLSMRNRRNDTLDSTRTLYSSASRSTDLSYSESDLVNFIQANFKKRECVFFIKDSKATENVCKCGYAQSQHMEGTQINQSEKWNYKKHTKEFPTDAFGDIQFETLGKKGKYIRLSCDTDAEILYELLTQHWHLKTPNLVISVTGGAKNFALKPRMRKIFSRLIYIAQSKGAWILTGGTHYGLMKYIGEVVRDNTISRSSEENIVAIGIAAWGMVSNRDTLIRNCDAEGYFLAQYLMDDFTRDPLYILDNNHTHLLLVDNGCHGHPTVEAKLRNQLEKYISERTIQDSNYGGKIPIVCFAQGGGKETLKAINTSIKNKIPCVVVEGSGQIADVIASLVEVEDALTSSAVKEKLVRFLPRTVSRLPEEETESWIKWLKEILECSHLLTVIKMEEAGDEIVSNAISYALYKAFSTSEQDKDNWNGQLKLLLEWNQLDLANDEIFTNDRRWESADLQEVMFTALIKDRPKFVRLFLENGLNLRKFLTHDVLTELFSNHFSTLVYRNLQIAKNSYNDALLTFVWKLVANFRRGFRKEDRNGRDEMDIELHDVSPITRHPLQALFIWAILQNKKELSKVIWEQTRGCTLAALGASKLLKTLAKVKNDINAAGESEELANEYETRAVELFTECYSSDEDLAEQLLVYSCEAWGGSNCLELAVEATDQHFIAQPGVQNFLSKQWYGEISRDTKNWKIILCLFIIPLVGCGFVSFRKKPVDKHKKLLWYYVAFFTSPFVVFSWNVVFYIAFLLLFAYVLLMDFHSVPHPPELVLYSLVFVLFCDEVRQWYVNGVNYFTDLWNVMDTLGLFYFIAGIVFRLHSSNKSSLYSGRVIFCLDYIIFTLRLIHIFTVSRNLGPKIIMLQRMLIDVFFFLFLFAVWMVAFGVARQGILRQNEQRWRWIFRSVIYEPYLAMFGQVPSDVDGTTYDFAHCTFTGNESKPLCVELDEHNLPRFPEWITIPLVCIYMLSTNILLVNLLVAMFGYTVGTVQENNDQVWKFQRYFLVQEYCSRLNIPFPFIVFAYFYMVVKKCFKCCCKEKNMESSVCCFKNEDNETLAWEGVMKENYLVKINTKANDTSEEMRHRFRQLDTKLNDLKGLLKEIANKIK
The test can be described thus: ATP viability assay with CHO/Trp-p8 cells at 37° C. Format: cell-based. The conditions noted are these: Table 2, Formula I-B; CHO/Trp-p8 cells, 24-26 hours at 37° C., 50% reduction in relative cell viability; read-out: EC50. From the text: Human Trp-p8 transfected CHO cells (referred to herein as CHO/Trp-p8) were generated for use in experiments of the present invention. Expression of Trp-p8 polypeptide in this transfectant and the absence of any endogenous expression in the non-transfected CHO was confirmed by western blot and immunofluorescence using a Trp-p8 specific antibody (GS2.20) as well as the calcium flux assay with Icilin (1-[2-hydroxyphenyl]-4-[3-nitrophenyl]-1,2,3,6-tetrahydropyrimidine-2-one) and menthol (2-isopropyl-5-methyl-cyclohexanol). Non-transfected CHO cells were used to establish the specificity of the effects of the compounds observed with CHO/Trp-p8.
This Example discloses an ATP viability assay suitable for screening for effective Trp-p8 agonists. The ATP viability assay described herein employs CHO cells expressing an exogenous Trp-p8 cDNA. This example further establishes that Trp-p8 agonists of the present invention are effective in decreasing the viability of Trp-p8 expressing cells.
The concentration of intracellular ATP declines very rapidly when metabolically active cells undergo necrosis and/or apoptosis. The ATP concentration and consequently the relative cell viability can be measured by established methods using commercially available reagents. In the agonist screening methodology disclosed herein, a compound that specifically decreases the viability of CHO/Trp-p8 cells is referred to as an agonist.
As a primary screen for efficacy and specificity for agonists, both the non-transfected CHO and CHO/Trp-p8 cells were exposed to 1 or 10 μM of test compounds in 1% dimethylsulfoxide (DMSO) or 1% DMSO (control) in a 96-well black walled, black-bottomed, cell-culture treated plate. DMSO was the solvent for all of the compounds tested. After 24-26 hours at 37° C., the cells were lysed and ATP concentration determined via a chemiluminescence assay using a commercially available reagent kit—Cell Titer-Glo (Promega; Madison, Wis.). […] (EC50 is defined herein as the agonist concentration at which there is a 50% reduction in relative cell viability).
For the compound `CC(C)[C@@H]1CC[C@@H](C)C[C@H]1C(=O)Nc1cc(-c2ccccc2)nn1CCN` [Compound 16], the EC50 was less than 0.02 µM. `CC(C)[C@@H]1CC[C@@H](C)C[C@H]1C(=O)Nc1cc(-c2cccn2C)nn1CCN` [Compound 17, 2-Isopropyl-5-methyl-cyclohexane carboxylic acid-[2-(2-amino-ethyl)-5-(1-methyl-1H-pyrrol-2-yl)-2H-pyrazol-3-yl]-amide]: the EC50 is less than 0.02 µM. With `CC(C)[C@@H]1CC[C@@H](C)C[C@H]1C(=O)Nc1cc(-c2ccccc2)nn1CCCN` [Compound 18], the concentration giving a half-maximal response (EC50) is less than 0.02 µM. For `CC(C)[C@@H]1CC[C@@H](C)C[C@H]1C(=O)Nc1cc(-c2ccc(N)cc2)nn1CCN` [Compound 19], the EC50 was in the range of 0.021 to 0.05 µM. `CC(C)[C@@H]1CC[C@@H](C)C[C@H]1C(=O)Nc1cc(-c2ccc(O)cc2)nn1CCN` [Compound 20]: the EC50 was in the range of 0.021 to 0.05 µM.

In the case of `CNCCn1nc(-c2ccccc2)cc1NC(=O)[C@@H]1C[C@H](C)CC[C@H]1C(C)C` [Compound 21], the half-maximal effective concentration (EC50) was in the range of 0.021 to 0.05 µM. Turning to `CC(C)[C@@H]1CC[C@@H](C)C[C@H]1C(=O)Nc1cc(-c2ccccc2)nn1C[C@H](C)N` [Compound 22], the EC50 lay within 0.021 to 0.05 µM.

As for `CC(C)[C@@H]1CC[C@@H](C)C[C@H]1C(=O)Nc1cc(-c2cccc(C#N)c2)nn1CCN` [Compound 23], the EC50 lay within 0.021 to 0.05 µM.

For `COc1cccc(-c2cc(NC(=O)[C@@H]3C[C@H](C)CC[C@H]3C(C)C)n(CCN)n2)c1` [Compound 24], the EC50 is 0.021 to 0.05 µM.

`COC(=O)c1ccc(-c2cc(NC(=O)[C@@H]3C[C@H](C)CC[C@H]3C(C)C)n(CCN)n2)cc1` [Compound 25]: the concentration giving a half-maximal response (EC50) was 0.051 to 0.1 µM. With `CC(C)[C@@H]1CC[C@@H](C)C[C@H]1C(=O)Nc1cc(-c2cccc(N)c2)nn1CCN` [Compound 26], the EC50 fell in the range of 0.051 to 0.1 µM. For `CC(C)[C@@H]1CC[C@@H](C)C[C@H]1C(=O)Nc1cc(-c2cccc(O)c2)nn1CCN` [Compound 27], the EC50 lay in the range of 0.051 to 0.1 µM.

The same test, now with this note: Table 3, Formula I-C; CHO/Trp-p8 cells, 24-26 hours at 37° C., 50% reduction in relative cell viability; read-out: EC50.
In the case of `CC(C)[C@@H]1CC[C@@H](C)C[C@H]1C(=O)NC[C@@H](OCCN)c1ccccc1` [Compound 29], the half-maximal effective concentration (EC50) was less than 0.02 µM. Same read-out and setting: with `CC(C)[C@@H]1CC[C@@H](C)C[C@H]1C(=O)NCC(OCCN)c1ccccc1` (stereo partly drawn) [Compound 30, 2-Isopropyl-5-methyl-cyclohexanecarboxylic[2-(2-amino-4-ethoxy)-2-phenyl-ethyl]-amide] the figure was less than 0.02 µM; with `CC(C)[C@@H]1CC[C@@H](C)C[C@H]1C(=O)NCC(OCCCN)c1ccccc1` (stereo partly drawn) [Compound 31, 2-Isopropyl-5-methyl-cyclohexanecarboxylic[2-(3-amino-4-propoxy)-2-phenyl-ethyl]-amide], 0.021 to 0.05 µM. For `CC(C)[C@@H]1CC[C@@H](C)C[C@H]1C(=O)NCC(NCCN)c1ccccc1` (stereo partly drawn) [Compound 32], the EC50 lay in the range of 0.051 to 0.1 µM.

The same test, now with this note: Table 4, Formula I-D; CHO/Trp-p8 cells, 24-26 hours at 37° C., 50% reduction in relative cell viability; read-out: EC50.
For the compound `CC(C)[C@@H]1CC[C@@H](C)C[C@H]1C(=O)NCCc1ccccc1NCCN` [Compound 33, 2-Isopropyl-5-methyl-cyclohexanecarboxylic acid {2-[2-(2-amino-ethylamino)-phenyl]-ethyl}-amide], the concentration for a half-maximal effect (EC50) was less than 0.02 µM. Regarding `CC(C)[C@@H]1CC[C@@H](C)C[C@H]1C(=O)NCCc1ccccc1CN` [Compound 34], the concentration giving a half-maximal response (EC50) was less than 0.02 µM. On to `CC(C)[C@@H]1CC[C@@H](C)C[C@H]1C(=O)NCCN(C(=O)CN)c1ccccc1` [Compound 35], for which the concentration giving a half-maximal response (EC50) lay within 0.021 to 0.05 µM.

The same test, now with this note: Table 5, Formula I-E; CHO/Trp-p8 cells, 24-26 hours at 37° C., 50% reduction in relative cell viability; read-out: EC50.
For the compound `COc1ccc2c(c1)n(CCN)c(=O)n2C(=O)[C@@H]1C[C@H](C)CC[C@H]1C(C)C` [Compound 36, 3-(2-Aminoethyl)-1-(2-isopropyl-5-methylcyclohexanecarbonyl)-5-methoxy-1,3-dihydro-benzoimidazol-2-one], the EC50 is less than 0.02 µM. For `CC(C)[C@@H]1CC[C@@H](C)C[C@H]1C(=O)n1c(=O)n(CCN)c2cc(OCCCO)ccc21` [Compound 37, 3-(2-aminoethyl)-5-(3-hydroxypropoxy)-1-(2-isopropyl-5-methylcyclohexanecarbonyl)-1,3-dihydro-benzoimidazol-2-one], the half-maximal effective concentration (EC50) was less than 0.02 µM. For the compound `CC(C)[C@@H]1CC[C@@H](C)C[C@H]1C(=O)n1c(=O)n(CCN)c2cc(S(C)(=O)=O)ccc21` [Compound 39], the EC50 was less than 0.02 µM. In the case of `CC(C)[C@@H]1CC[C@@H](C)C[C@H]1C(=O)n1c(=O)n(CCN)c2cc(OCCO)ccc21` [Compound 40, 3-(2-aminoethyl)-5-(2-hydroxyethoxy)-1-(2-isopropyl-5-methylcyclohexanecarbonyl)-1,3-dihydro-benzoimidazol-2-one], the concentration for a half-maximal effect (EC50) was less than 0.02 µM. For `CC(C)[C@@H]1CC[C@@H](C)C[C@H]1C(=O)n1c(=O)n(CCN)c2cc(C(N)=O)ccc21` [Compound 41, 3-(2-Amino-ethyl)-1-(2-isopropyl-5-methyl-cyclohexanecarbonyl)-2-oxo-2,3-dihydro-1H-benzoimidazole-5-carboxylic acid amide], the EC50 is less than 0.02 µM. `CSc1ccc2c(c1)n(CCN)c(=O)n2C(=O)[C@@H]1C[C@H](C)CC[C@H]1C(C)C` [Compound 42, 3-(2-Amino-ethyl)-1-(2-isopropyl-5-methyl-cyclohexanecarbonyl)-5-methylsulfanyl-1,3-dihydro-benzoimidazol-2-one]: the EC50 is less than 0.02 µM. As for `CC(C)[C@@H]1CC[C@@H](C)C[C@H]1C(=O)n1c(=O)n(CCN)c2cc([S+](C)[O-])ccc21` (stereo partly drawn) [Compound 43, 3-(2-Amino-ethyl)-1-(2-isopropyl-5-methyl-cyclohexanecarbonyl)-5-methylsulfinyl-1,3-dihydro-benzoimidazol-2-one], the EC50 was less than 0.02 µM. With `CCN(CC)CCNC(=O)c1ccc2c(c1)n(CCN)c(=O)n2C(=O)[C@@H]1C[C@H](C)CC[C@H]1C(C)C` [Compound 44, 3-(2-Amino-ethyl)-1-(2-isopropyl-5-methylcyclohexanecarbonyl)-2-oxo-2,3-dihydro-1H-benzoimidazole-5-carboxylic acid (2-diethylamino-ethyl)amide], the concentration giving a half-maximal response (EC50) was less than 0.02 µM. For the compound `CC(C)[C@@H]1CC[C@@H](C)C[C@H]1C(=O)n1c(=O)n(C[C@@H](C)N)c2ccccc21` [Compound 45, 1-(2-Amino-2-(R)-methylethyl)-3-(2-isopropyl-5-methylcyclohexanecarbonyl)-1,3-dihydro-benzoimidazol-2-one], the EC50 was less than 0.02 µM. As to `C#CCOc1ccc2c(c1)n(CCN)c(=O)n2C(=O)[C@@H]1C[C@H](C)CC[C@H]1C(C)C` [Compound 46], the half-maximal effective concentration (EC50) was less than 0.02 µM. Take `COCCNC(=O)c1ccc2c(c1)n(CCN)c(=O)n2C(=O)[C@@H]1C[C@H](C)CC[C@H]1C(C)C` [Compound 49]: the EC50 is less than 0.02 µM. Take `CC(C)[C@@H]1CC[C@@H](C)C[C@H]1C(=O)n1c(=O)n(CCN)c2ccccc21` [Compound 50, 1-(2-Aminoethyl)-3-(2-isopropyl-5-methylcyclohexanecarbonyl)-1,3-dihydro-benzoimidazol-2-one]: the concentration for a half-maximal effect (EC50) is less than 0.02 µM. As to `CC(C)[C@@H]1CC[C@@H](C)C[C@H]1C(=O)n1c(=O)n(CCN)c2cc3ccccc3cc21` [Compound 51], the EC50 is less than 0.02 µM. On to `CC(C)[C@@H]1CC[C@@H](C)C[C@H]1C(=O)n1c(=O)n(CCN)c2cc(C(=O)NCCO)ccc21` [Compound 52], for which the half-maximal effective concentration (EC50) is less than 0.02 µM. Consider `CC(C)[C@@H]1CC[C@@H](C)C[C@H]1C(=O)n1c(=O)n(CCN)c2cnccc21` [Compound 54], for which the 50% effective concentration (EC50) is 0.021 to 0.05 µM. For `CCN(CC)CCNC(=O)c1cccc2c1n(CCN)c(=O)n2C(=O)[C@@H]1C[C@H](C)CC[C@H]1C(C)C` [Compound 55], the half-maximal effective concentration (EC50) lay within 0.021 to 0.05 µM. The same measure, in the same setting: to `CC(C)[C@@H]1CC[C@@H](C)C[C@H]1C(=O)n1c(=O)n(CCN)c2cc(C(=O)Nc3ccncc3)ccc21` [Compound 56] belongs 0.021 to 0.05 µM; to `CC(C)[C@@H]1CC[C@@H](C)C[C@H]1C(=O)n1c(=O)n(CCN)c2ncccc21` [Compound 57], 0.021 to 0.05 µM. Still for that read-out and setting: to `CC(C)[C@@H]1CC[C@@H](C)C[C@H]1C(=O)n1c(=O)n(CCCN)c2ccccc21` [Compound 58] belongs 0.021 to 0.05 µM. Consider `CC(C)[C@@H]1CC[C@@H](C)C[C@H]1C(=O)n1c(=O)n(CCN)c2cc(C(=O)Nc3ccccc3)ccc21` [Compound 59], for which the EC50 lay in the range of 0.021 to 0.05 µM. Turning to `CC(C)[C@@H]1CC[C@@H](C)C[C@H]1C(=O)n1c(=O)n(CCN)c2ccc(C(F)(F)F)cc21` [Compound 61], the EC50 lay in the range of 0.021 to 0.05 µM.

Consider `CC(C)[C@@H]1CC[C@@H](C)C[C@H]1C(=O)n1c(=O)n(CCN)c2ccncc21` [Compound 62], for which the EC50 was in the range of 0.021 to 0.05 µM. `CC(C)[C@@H]1CC[C@@H](C)C[C@H]1C(=O)n1c(=O)n(CCN)c2cc(C(=O)NCc3ccccc3)ccc21` [Compound 63]: the 50% effective concentration (EC50) was in the range of 0.021 to 0.05 µM.

A word on the EC50: it is the concentration at which the effect is half-maximal.

The values are drawn from patent US7741355B2, “Small-molecule modulators of TRP-p8 activity” (Dendreon Corporation, priority 2006, dated 2010).
